Measurements reported in publication PMC11954145, “Antimicrobial and ADME properties of methoxylated, methylated and nitrated 2-hydroxynaphthalene-1 carboxanilides” (ADMET & DMPK, 2025).
≈ marks a conversion by molar mass, not a printed value. Where “and” joins values, the source holds several entries; their conditions need not be identical. Equal entries are not always repeated. Where two headings read alike, the source gives them in different places.

How the values were obtained:
[1] = test system: Mycobacterium tuberculosis ATCC 25177/H37Ra; test: Antimycobacterial screening, broth dilution MIC (Alamar blue); assay type: cell-based; conditions: 336 h, read-out: MIC M. tuberculosis
Procedure: The evaluation of in vitro antimycobacterial activity of the compounds was performed against Mycobacterium tuberculosis ATCC 25177/H37Ra, Mycobacterium kansasii DSM 44162 and Mycobacterium smegmatis ATCC 700084.
The broth dilution micro-method in Middlebrook 7H9 medium (Difco, Lawrence, KS, USA) supplemented with ADC Enrichment (Difco) was used to determine the minimum inhibitory concentration (MIC) as previously described. […] The final concentrations of the evaluated compounds, ranging from 256 to 0.125 μg mL^-1, were obtained by twofold serial dilution of the stock solution in a microtiter plate with a sterile medium. Bacterial inocula were prepared by transferring colonies from culture to sterile water. The plate was inoculated by tested microorganisms. The final concentration of bacterial cells was 1.5×10^6 for M. tuberculosis and 10^5 cells in a microtiter plate for other mycobacteria. Isoniazid and rifampicin (Sigma) were used as reference antimycobacterial drugs. Drug-free controls, sterility controls, and controls consisting of medium and DMSO alone were included. The plates were incubated for a defined time at an appropriate temperature (3 days at 37 °C for M. smegmatis, and 14 days at 37 °C for M. tuberculosis and M. kansasii). […] The MICs against M. tuberculosis were evaluated by Alamar blue (Oxoid). After incubation, 10 % of Alamar blue was added to each well, and the plate was incubated for 24 h. The MIC values were assessed as the lowest concentration of the tested compounds, which prevented changing blue resazurin to pink resorufin. The experiments were repeated three times. The minimum inhibitory concentrations (MICs) were defined as the lowest concentration of the compound at which no visible bacterial growth was observed. The MIC value is routinely and widely used in bacterial assays and is a standard detection limit according to the CLSI [60].

[2] = test system: S. aureus ATCC 29213; test: Antibacterial screening, broth microdilution MIC; assay type: cell-based; conditions: Staphylococcus aureus, ATCC29213; ATCC 29213, 24 h at 37 °C; read-out: MIC S. aureus
[3] = test system: Enterococcus faecalis ATCC 29212; test: Antibacterial screening, broth microdilution MIC; assay type: cell-based; conditions: read-out: MIC E. faecalis
[4] = test system: MRSA 63718; test: Antibacterial screening, broth microdilution MIC; assay type: cell-based, methicillin-resistant S. aureus; conditions: Staphylococcus aureus, clinical isolate, 24 h at 37 °C, read-out: MIC MRSA 63718
[5] = test system: VRE 368; test: Antibacterial screening, broth microdilution MIC; assay type: cell-based, vancomycin-resistant E. faecalis; conditions: Enterococcus, vanA isolate, 24 h at 37 °C, read-out: MIC VRE 368
[6] = test system: Mycobacterium kansasii DSM 44162; test: Antimycobacterial screening, broth dilution MIC; assay type: cell-based; conditions: DSM44162, 336 h, read-out: MIC M. kansasii
[7] = Lipophilicity determination by RP-HPLC (log k, log D); assay type: physicochemical; conditions: for log D6.5: RP-HPLC C18, MeOH 72 % / acetate-buffered saline pH 6.5; for log D7.4: RP-HPLC C18, MeOH 72 % / acetate-buffered saline pH 7.4; for log k (logarithm of the capacity factor): RP-HPLC C18, MeOH 72 % / water 28 %
Text: An HPLC system Agilent 1200 equipped with a DAD detector (Agilent, Santa Clara, CA, USA) was used. A chromatographic column Symmetry® C18 5 μm, 4.6×250 mm, part No. WAT054275 (Waters Corp., Milford, MA, USA) was used. The HPLC separation process was monitored and evaluated with EZChrom Elite software ver. 3.3.2 (Agilent). Isocratic elution by a mixture of MeOH p.a. (72 %) and H2O-HPLC Mili-Q grade (28 %) as a mobile phase was used for the determination of capacity factor k. Isocratic elution by a mixture of MeOH p.a. (72 %) and acetate-buffered saline (pH 7.4 and pH 6.5) (28 %) as a mobile phase was used for the determination of distribution coefficients expressed as D7.4 and D6.5. The total flow of the column was 1.0 mL min^-1, the injection volume was 20 μL, the column temperature was 40 °C, and the sample temperature was 10 °C. The detection wavelength of 210 nm was chosen. A KI methanolic solution was used to determine the dead times (tD). Retention times (tR) were measured in minutes. The capacity factors k were calculated according to the formula k = (tR–tD)/tD, where tR is the retention time of the solute, and tD is the dead time obtained using an unretained analyte. The distribution coefficients DpH were calculated according to the formula DpH = (tR–tD)/tD. Each experiment was repeated three times.
The capacity factor and distribution coefficients were measured by RP-HPLC on a C18 column with methanol as an organic modifier of the mobile phase. In addition to the experimental lipophilicities, predicted log P values were also calculated using ACD/Percepta, see Table 1. […] The values of σ(Ar) are found in a wide range from 0.01 to 1.36, so the compounds contain substituents with both electron-donating and slightly electron-withdrawing properties.

[8] = test system: VRE 725B; test: Antibacterial screening, broth microdilution MIC; assay type: cell-based, vancomycin-resistant E. faecalis; conditions: Enterococcus, vanA isolate, 24 h at 37 °C, read-out: MIC VRE 725B
[9] = test system: Mycobacterium smegmatis ATCC 700084; test: Antimycobacterial screening, broth dilution MIC; assay type: cell-based; conditions: Mycolicibacterium smegmatis, ATCC700084, 72 h, read-out: MIC M. smegmatis
[10] = test system: MRSA SA 3202; test: Antibacterial screening, broth microdilution MIC; assay type: cell-based, methicillin-resistant S. aureus; conditions: Staphylococcus aureus, clinical isolate, 24 h at 37 °C, read-out: MIC MRSA SA 3202
[11] = test system: VRE 342B; test: Antibacterial screening, broth microdilution MIC; assay type: cell-based, vancomycin-resistant E. faecalis; conditions: Enterococcus, vanA isolate, 24 h at 37 °C, read-out: MIC VRE 342B
[12] = test system: E. coli ATCC 25922; test: Antibacterial screening, broth microdilution MIC; assay type: cell-based; conditions: Escherichia coli, ATCC25922; ATCC 25922, 24 h at 37 °C
[13] = test system: MRSA SA 630; test: Antibacterial screening, broth microdilution MIC; assay type: cell-based, methicillin-resistant S. aureus; conditions: Staphylococcus aureus, clinical isolate, 24 h at 37 °C, read-out: MIC MRSA SA 630
[14] = H37Ra, 14 days at 37 °C, Alamar blue
[15] = ATCC29212, ATCC 29212, 24 h at 37 °C

## COc1cccc(C)c1NC(=O)c1c(O)ccc2ccccc12 [Compound 16, 2-Hydroxy-N-(2-methoxy-6-methylphenyl)naphthalene-1-carboxamide]
[1]; [14]
  MIC: 416 µM (≈ 128 µg/mL)
[2]
  MIC: 833 µM (≈ 256 µg/mL)
[3]; ATCC29212, 24 h
  MIC: 416 µM (≈ 128 µg/mL)
[4]
  MIC: 833 µM (≈ 256 µg/mL)
[5]
  MIC: 208 µM (≈ 63.9 µg/mL)
[6]
  MIC: 833 µM (≈ 256 µg/mL)
[7]
  log D6.5: 0.0284
  log D7.4: 0.0382
  log k (logarithm of the capacity factor): 0.0124
[8]
  MIC: 833 µM (≈ 256 µg/mL)
[9]
  MIC: 416 µM (≈ 128 µg/mL)
[10]
  MIC: 833 µM (≈ 256 µg/mL)
[11]
  MIC: 208 µM (≈ 63.9 µg/mL)
[12]
  MIC: 833 µM (≈ 256 µg/mL)
[13]
  MIC: 833 µM (≈ 256 µg/mL)

## COc1ccc(Cl)c(NC(=O)c2c(O)ccc3ccccc23)c1 [Compound 18, N-(2-Chloro-5-methoxyphenyl)-2-hydroxynaphthalene-1-carboxamide]
[1]; [14]
  MIC: 391 µM (≈ 128 µg/mL)
[2]
  MIC: 48.8 µM (≈ 16 µg/mL)
[3]; [15]
  MIC: 781 µM (≈ 256 µg/mL)
[4]
  MIC: 195 µM (≈ 63.9 µg/mL)
[5]
  MIC: 781 µM (≈ 256 µg/mL)
[6]
  MIC: 391 µM (≈ 128 µg/mL)
[7]
  log D6.5: 0.4607
  log D7.4: 0.4593
  log k (logarithm of the capacity factor): 0.46 and 0.4635
[8]
  MIC: 781 µM (≈ 256 µg/mL)
[9]; ATCC 700084, 3 days at 37 °C
  MIC: 781 µM (≈ 256 µg/mL)
[10]
  MIC: 97.6 µM (≈ 32 µg/mL)
[11]
  MIC: 781 µM (≈ 256 µg/mL)
[12]
  MIC: 781 µM (≈ 256 µg/mL)
[13]
  MIC: 48.8 µM (≈ 16 µg/mL)

## Cc1ccccc1NC(=O)c1c(O)ccc2ccccc12 [Compound 8, 2-hydroxy-N-(2-methylphenyl)naphthalene-1-carboxamide]
[1]; [14]
  MIC: 231 µM (≈ 64.1 µg/mL)
[2]
  MIC: 462 µM (≈ 128 µg/mL)
[3]; [15]
  MIC: 462 µM (≈ 128 µg/mL)
[4]
  MIC: 462 µM (≈ 128 µg/mL)
[5]
  MIC: 462 µM (≈ 128 µg/mL)
[6]; DSM 44162, 14 days at 37 °C
  MIC: 115 µM (≈ 31.9 µg/mL)
[7]
  log D6.5: 0.0745
  log D7.4: 0.0838
  log k (logarithm of the capacity factor): 0.0858
[8]
  MIC: 462 µM (≈ 128 µg/mL)
[9]; ATCC 700084, 3 days at 37 °C
  MIC: 462 µM (≈ 128 µg/mL)
[10]
  MIC: 462 µM (≈ 128 µg/mL)
[11]
  MIC: 462 µM (≈ 128 µg/mL)
[12]
  MIC: 462 µM (≈ 128 µg/mL)
[13]
  MIC: 462 µM (≈ 128 µg/mL)

## COc1cc(NC(=O)c2c(O)ccc3ccccc23)cc(OC)c1OC [Compound 7, 2-Hydroxy-N-(3,4,5-trimethoxyphenyl)naphthalene-1-carboxamide]
[1]
  MIC: 210 µM (≈ 74.2 µg/mL)
[2]
  MIC: 838 µM (≈ 296 µg/mL)
[3]; [15]
  MIC: 724 µM (≈ 256 µg/mL)
[4]
  MIC: 838 µM (≈ 296 µg/mL)
[5]
  MIC: 724 µM (≈ 256 µg/mL)
[6]; DSM 44162, 14 days at 37 °C
  MIC: 838 µM (≈ 296 µg/mL)
[7]
  log D6.5: -0.1053
  log D7.4: -0.0948
  log k (logarithm of the capacity factor): -0.1150
[8]
  MIC: 724 µM (≈ 256 µg/mL)
[9]; ATCC 700084, 3 days at 37 °C
  MIC: 210 µM (≈ 74.2 µg/mL)
[10]
  MIC: 419 µM (≈ 148 µg/mL)
[11]
  MIC: 724 µM (≈ 256 µg/mL)
[12]
  MIC: 838 µM (≈ 296 µg/mL)
[13]
  MIC: 838 µM (≈ 296 µg/mL)

## COc1ccc(C(F)(F)F)cc1NC(=O)c1c(O)ccc2ccccc12 [Compound 20, 2-Hydroxy-N-[2-methoxy-5-(trifluoromethyl)phenyl]naphthalene-1-carboxamide]
[1]; [14]
  MIC: 354 µM (≈ 128 µg/mL)
[2]
  MIC: 709 µM (≈ 256 µg/mL)
[3]; [15]
  MIC: 709 µM (≈ 256 µg/mL)
[4]
  MIC: 709 µM (≈ 256 µg/mL)
[5]
  MIC: 709 µM (≈ 256 µg/mL)
[6]; DSM 44162, 14 days at 37 °C
  MIC: 709 µM (≈ 256 µg/mL)
[7]
  log D6.5: 0.5323
  log D7.4: 0.5305
  log k (logarithm of the capacity factor): 0.5335
[8]
  MIC: 709 µM (≈ 256 µg/mL)
[9]; ATCC 700084, 3 days at 37 °C
  MIC: 709 µM (≈ 256 µg/mL)
[10]
  MIC: 709 µM (≈ 256 µg/mL)
[11]
  MIC: 709 µM (≈ 256 µg/mL)
[12]
  MIC: 709 µM (≈ 256 µg/mL)
[13]
  MIC: 709 µM (≈ 256 µg/mL)

## COc1ccc(NC(=O)c2c(O)ccc3ccccc23)cc1 [Compound 4, 2-hydroxy-N-(4-methoxyphenyl)naphthalene-1-carboxamide]
[1]; [14]
  MIC: 109 µM (≈ 32 µg/mL)
[2]
  MIC: > 873 µM
[3]; [15]
  MIC: > 873 µM
[4]
  MIC: > 873 µM
[5]
  MIC: > 873 µM
[6]; DSM 44162, 14 days at 37 °C
  MIC: 218 µM (≈ 63.9 µg/mL)
[7]
  log D6.5: -0.0491
  log D7.4: -0.0382
  log k (logarithm of the capacity factor): -0.0380
[8]
  MIC: > 873 µM
[9]; ATCC 700084, 3 days at 37 °C
  MIC: 436 µM (≈ 128 µg/mL)
[10]
  MIC: > 873 µM
[11]
  MIC: > 873 µM
[12]
  MIC: 873 µM (≈ 256 µg/mL)
[13]
  MIC: > 873 µM

## COc1ccc(C)cc1NC(=O)c1c(O)ccc2ccccc12 [Compound 15, 2-Hydroxy-N-(2-methoxy-5-methylphenyl)naphthalene-1-carboxamide]
[1]; [14]
  MIC: 416 µM (≈ 128 µg/mL)
[2]
  MIC: 833 µM (≈ 256 µg/mL)
[3]; [15]
  MIC: 833 µM (≈ 256 µg/mL)
[4]
  MIC: 833 µM (≈ 256 µg/mL)
[5]
  MIC: 833 µM (≈ 256 µg/mL)
[6]
  MIC: 833 µM (≈ 256 µg/mL)
[7]
  log D6.5: 0.4974
  log D7.4: 0.5012
  log k (logarithm of the capacity factor): 0.4932
[8]
  MIC: 833 µM (≈ 256 µg/mL)
[9]; ATCC 700084, 3 days at 37 °C
  MIC: 833 µM (≈ 256 µg/mL)
[10]
  MIC: 833 µM (≈ 256 µg/mL)
[11]
  MIC: 833 µM (≈ 256 µg/mL)
[12]
  MIC: 833 µM (≈ 256 µg/mL)
[13]
  MIC: 833 µM (≈ 256 µg/mL)
